Assay results reported in ChEMBL document CHEMBL5058643, “Data for DCP probe BI-2081” (2022).

Key:
[1] = target: D(2) dopamine receptor (Homo sapiens) (UniProt P14416); assay: D2S/HU Eurofins SafetyScreen44 (BI); conditions: Compound concentration 10.0 uM
[2] = target: T1, Muscarinic acetylcholine receptor M3 (Homo sapiens, UniProt P20309); assay: M3/HU Eurofins SafetyScreen44 (BI)
[3] = target: Cysteinyl leukotriene receptor 1 (Homo sapiens) (UniProt Q9Y271); assay: CYSLT1_HS Eurofins SafetyScreen44 (BI); conditions: Compound concentration 10.0 uM
Sequence of Cysteinyl leukotriene receptor 1 (Homo sapiens) (Q9Y271 whole entry): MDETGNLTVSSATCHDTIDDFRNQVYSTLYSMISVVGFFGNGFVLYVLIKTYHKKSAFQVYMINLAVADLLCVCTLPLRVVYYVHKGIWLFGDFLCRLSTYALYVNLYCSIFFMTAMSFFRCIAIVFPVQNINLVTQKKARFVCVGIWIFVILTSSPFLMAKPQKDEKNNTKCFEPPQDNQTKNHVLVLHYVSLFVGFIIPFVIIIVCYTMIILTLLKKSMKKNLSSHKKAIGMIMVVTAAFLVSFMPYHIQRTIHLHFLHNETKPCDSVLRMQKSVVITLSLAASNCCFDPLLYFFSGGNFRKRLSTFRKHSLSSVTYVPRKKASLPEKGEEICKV

[4] = target: Interleukin-1 beta (Mus musculus) (UniProt P10749); assay: IL-1 Eurofins SafetyScreen44 (BI); conditions: Compound concentration 10.0 uM
Sequence of Interleukin-1 beta (Mus musculus) (P10749 118-269 limits assumed): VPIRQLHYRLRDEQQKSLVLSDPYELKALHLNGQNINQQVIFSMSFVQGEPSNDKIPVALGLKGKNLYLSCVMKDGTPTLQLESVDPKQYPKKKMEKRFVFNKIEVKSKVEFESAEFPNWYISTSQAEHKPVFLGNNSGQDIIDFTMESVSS

[5] = target: Glucocorticoid receptor (Homo sapiens) (UniProt P04150); assay: GLUCOCORTICO Eurofins SafetyScreen44 (BI); conditions: Compound concentration 10.0 uM
Sequence of Glucocorticoid receptor (Homo sapiens) (P04150 whole entry): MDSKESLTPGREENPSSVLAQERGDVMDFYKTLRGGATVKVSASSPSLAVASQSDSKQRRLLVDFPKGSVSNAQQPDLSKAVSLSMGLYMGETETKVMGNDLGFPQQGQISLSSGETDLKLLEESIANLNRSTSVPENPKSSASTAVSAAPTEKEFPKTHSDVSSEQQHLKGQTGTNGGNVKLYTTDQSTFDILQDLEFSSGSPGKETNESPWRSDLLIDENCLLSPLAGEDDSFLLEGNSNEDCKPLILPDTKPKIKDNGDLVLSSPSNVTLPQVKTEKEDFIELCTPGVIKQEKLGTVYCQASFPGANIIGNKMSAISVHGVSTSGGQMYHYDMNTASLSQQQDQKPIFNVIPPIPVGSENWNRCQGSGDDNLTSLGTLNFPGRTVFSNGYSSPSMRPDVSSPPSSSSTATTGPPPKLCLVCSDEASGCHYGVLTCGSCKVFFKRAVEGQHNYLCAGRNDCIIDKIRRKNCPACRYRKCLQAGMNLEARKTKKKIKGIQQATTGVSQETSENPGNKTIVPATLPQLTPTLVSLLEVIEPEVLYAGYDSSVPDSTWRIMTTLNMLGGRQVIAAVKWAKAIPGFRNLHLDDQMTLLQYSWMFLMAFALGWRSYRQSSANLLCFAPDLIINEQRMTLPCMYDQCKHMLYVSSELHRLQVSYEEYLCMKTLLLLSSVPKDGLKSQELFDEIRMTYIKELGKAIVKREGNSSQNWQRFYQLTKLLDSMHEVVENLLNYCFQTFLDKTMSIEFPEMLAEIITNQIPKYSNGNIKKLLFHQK

[6] = target: T2, Muscarinic acetylcholine receptor M2 (Homo sapiens) (UniProt P08172); assay: M2/HU Eurofins SafetyScreen44 (BI); conditions: Compound concentration 10.0 uM
T2 sequence (whole entry): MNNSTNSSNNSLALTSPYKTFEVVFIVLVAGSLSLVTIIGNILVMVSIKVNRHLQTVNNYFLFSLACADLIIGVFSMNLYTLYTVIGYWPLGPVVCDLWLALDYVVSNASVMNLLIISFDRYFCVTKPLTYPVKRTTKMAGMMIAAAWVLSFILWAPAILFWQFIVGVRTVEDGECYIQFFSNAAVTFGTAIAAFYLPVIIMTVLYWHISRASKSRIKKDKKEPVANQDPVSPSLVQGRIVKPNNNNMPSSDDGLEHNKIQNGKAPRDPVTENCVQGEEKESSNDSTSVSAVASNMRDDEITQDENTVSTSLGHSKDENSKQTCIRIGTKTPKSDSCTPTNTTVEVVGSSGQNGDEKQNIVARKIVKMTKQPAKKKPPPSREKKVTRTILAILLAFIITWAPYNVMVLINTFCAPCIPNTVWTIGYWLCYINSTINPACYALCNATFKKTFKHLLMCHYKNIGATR

[7] = target: Histamine H3 receptor (Homo sapiens) (UniProt Q9Y5N1); assay: H3/H Eurofins SafetyScreen44 (BI); conditions: Compound concentration 10.0 uM
Sequence of Histamine H3 receptor (Homo sapiens) (Q9Y5N1 whole entry): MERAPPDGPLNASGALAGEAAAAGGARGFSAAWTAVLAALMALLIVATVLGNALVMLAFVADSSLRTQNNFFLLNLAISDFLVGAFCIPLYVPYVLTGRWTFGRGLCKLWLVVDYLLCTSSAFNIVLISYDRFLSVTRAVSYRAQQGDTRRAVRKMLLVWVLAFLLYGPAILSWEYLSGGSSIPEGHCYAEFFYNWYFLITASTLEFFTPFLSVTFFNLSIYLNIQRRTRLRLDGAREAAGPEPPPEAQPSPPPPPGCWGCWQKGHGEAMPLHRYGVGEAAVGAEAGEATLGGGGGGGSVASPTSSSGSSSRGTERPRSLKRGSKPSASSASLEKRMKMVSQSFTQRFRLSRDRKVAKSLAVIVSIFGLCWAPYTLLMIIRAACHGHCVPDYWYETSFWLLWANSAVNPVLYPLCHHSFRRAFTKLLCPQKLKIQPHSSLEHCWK

[8] = target: Histamine H2 receptor (Homo sapiens) (UniProt P25021); assay: H2/H Eurofins SafetyScreen44 (BI); conditions: Compound concentration 10.0 uM
[9] = target: T3, Alpha-1B adrenergic receptor (Homo sapiens) (UniProt P35368); assay: ALPHA1B/R Eurofins SafetyScreen44 (BI); conditions: Rattus norvegicus; Compound concentration 10.0 uM
T3 sequence (whole entry): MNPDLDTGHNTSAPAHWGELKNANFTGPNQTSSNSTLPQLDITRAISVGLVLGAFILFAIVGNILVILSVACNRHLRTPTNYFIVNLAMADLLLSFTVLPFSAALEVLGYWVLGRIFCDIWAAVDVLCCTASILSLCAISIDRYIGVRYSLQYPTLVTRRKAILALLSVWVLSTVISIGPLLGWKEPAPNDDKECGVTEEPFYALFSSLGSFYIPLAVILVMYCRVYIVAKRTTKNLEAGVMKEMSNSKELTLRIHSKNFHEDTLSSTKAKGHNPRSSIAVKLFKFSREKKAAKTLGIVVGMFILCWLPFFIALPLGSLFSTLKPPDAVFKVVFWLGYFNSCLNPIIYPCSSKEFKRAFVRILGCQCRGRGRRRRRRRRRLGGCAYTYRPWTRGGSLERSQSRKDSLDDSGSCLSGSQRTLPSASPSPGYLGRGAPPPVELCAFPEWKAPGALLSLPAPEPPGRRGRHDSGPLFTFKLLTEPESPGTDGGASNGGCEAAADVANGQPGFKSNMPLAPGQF

[10] = target: Voltage-dependent N-type calcium channel subunit alpha-1B (Rattus norvegicus) (UniProt Q02294); assay: CA+/N/RA Eurofins SafetyScreen44 (BI); conditions: Compound concentration 10.0 uM
[11] = target: Gastrin/cholecystokinin type B receptor (Homo sapiens) (UniProt P32239); assay: CCKB/H Eurofins SafetyScreen44 (BI); conditions: Compound concentration 10.0 uM
[12] = target: hERG (KCNH2) (Homo sapiens, UniProt Q12809); assay: K+/HERG Eurofins SafetyScreen44 (BI); conditions: compound concentration 10 uM, read-out: % Ctrl
[13] = target: T4, Alpha-1A adrenergic receptor (Homo sapiens) (UniProt P35348); conditions: Compound concentration 10.0 uM
T4 sequence (whole entry): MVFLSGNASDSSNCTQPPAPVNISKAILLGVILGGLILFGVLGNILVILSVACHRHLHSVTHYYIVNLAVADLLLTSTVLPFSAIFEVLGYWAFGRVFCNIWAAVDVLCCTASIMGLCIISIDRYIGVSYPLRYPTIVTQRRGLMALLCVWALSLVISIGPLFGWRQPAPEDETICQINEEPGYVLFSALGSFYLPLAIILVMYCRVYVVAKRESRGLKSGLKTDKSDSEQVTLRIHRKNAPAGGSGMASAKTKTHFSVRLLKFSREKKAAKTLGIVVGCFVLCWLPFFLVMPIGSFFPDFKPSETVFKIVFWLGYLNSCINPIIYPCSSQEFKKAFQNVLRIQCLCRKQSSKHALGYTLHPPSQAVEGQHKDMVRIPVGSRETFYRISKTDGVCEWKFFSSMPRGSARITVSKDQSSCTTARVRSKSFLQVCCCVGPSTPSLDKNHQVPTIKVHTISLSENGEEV

[14] = target: Cannabinoid receptor 2 (Homo sapiens) (UniProt P34972); assay: CB2/PERIPH/H Eurofins SafetyScreen44 (BI); conditions: Compound concentration 10.0 uM
[15] = target: 5-hydroxytryptamine receptor 2B (Homo sapiens) (UniProt P41595); assay: 5HT2B/H AG Eurofins SafetyScreen44 (BI); conditions: filed as agonist, Compound concentration 10.0 uM
[16] = target: T1, Muscarinic acetylcholine receptor M3; assay: M3/H Eurofins SafetyScreen44 (BI); conditions: Compound concentration 10.0 uM
[17] = target: Androgen receptor (Homo sapiens) (UniProt P10275); assay: ANDROGEN/H Eurofins SafetyScreen44 (BI); conditions: Compound concentration 10.0 uM
[18] = target: cGMP-inhibited 3',5'-cyclic phosphodiesterase 3A (Homo sapiens) (UniProt Q14432); assay: PDE3A Eurofins SafetyScreen44 (BI); conditions: Compound concentration 10.0 uM
Sequence of cGMP-inhibited 3',5'-cyclic phosphodiesterase 3A (Homo sapiens) (Q14432 whole entry): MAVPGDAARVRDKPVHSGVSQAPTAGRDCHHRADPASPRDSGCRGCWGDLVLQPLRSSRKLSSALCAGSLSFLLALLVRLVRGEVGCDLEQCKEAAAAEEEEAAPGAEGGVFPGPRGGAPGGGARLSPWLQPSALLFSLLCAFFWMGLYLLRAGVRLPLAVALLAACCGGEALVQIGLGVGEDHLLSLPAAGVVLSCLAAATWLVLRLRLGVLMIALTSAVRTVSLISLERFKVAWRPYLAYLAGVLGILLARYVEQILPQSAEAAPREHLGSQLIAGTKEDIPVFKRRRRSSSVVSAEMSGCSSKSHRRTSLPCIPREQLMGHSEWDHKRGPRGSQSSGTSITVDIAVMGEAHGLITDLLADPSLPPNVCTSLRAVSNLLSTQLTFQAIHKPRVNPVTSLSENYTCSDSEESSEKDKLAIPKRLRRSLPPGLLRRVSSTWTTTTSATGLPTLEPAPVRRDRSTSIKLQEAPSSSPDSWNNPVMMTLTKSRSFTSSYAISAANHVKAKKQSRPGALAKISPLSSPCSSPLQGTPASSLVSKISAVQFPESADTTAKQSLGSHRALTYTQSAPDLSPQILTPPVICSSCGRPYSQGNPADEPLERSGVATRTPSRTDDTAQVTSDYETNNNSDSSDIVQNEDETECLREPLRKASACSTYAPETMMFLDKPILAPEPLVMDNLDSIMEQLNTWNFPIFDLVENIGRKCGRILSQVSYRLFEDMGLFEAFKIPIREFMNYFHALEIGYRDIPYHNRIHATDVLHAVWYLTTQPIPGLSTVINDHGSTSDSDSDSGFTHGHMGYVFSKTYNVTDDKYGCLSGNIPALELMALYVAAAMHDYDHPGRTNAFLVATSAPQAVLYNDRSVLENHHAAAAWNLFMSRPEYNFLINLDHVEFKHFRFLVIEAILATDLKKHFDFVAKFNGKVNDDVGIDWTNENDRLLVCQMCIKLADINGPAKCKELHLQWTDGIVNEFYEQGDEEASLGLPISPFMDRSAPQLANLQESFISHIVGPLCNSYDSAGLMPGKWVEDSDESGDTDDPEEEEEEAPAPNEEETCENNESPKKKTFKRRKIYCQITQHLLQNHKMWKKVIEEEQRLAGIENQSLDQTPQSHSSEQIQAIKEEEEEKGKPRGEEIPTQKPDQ

[19] = target: Sodium-dependent noradrenaline transporter (Homo sapiens) (UniProt P23975); assay: NEUP/H Eurofins SafetyScreen44 (BI); conditions: Compound concentration 10.0 uM
Sequence of Sodium-dependent noradrenaline transporter (Homo sapiens) (P23975 whole entry): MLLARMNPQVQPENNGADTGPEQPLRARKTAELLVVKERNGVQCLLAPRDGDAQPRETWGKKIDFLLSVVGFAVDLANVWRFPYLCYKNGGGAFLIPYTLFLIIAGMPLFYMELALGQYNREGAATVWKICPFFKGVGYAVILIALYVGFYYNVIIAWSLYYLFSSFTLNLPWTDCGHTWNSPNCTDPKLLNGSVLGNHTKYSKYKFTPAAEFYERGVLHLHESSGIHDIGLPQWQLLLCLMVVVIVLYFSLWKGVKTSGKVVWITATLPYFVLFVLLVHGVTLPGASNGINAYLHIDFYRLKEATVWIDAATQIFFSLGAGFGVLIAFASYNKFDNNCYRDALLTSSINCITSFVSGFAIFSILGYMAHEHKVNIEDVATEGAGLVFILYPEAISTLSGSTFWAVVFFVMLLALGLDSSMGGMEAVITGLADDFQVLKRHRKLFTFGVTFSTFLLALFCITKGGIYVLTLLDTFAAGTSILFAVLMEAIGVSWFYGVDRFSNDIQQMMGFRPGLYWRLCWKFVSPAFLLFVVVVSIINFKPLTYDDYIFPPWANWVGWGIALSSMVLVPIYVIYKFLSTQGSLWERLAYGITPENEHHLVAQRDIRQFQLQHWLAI

[20] = target: Kappa-type opioid receptor (Homo sapiens) (UniProt P41145); assay: KAPPA(KOP)_HU Eurofins SafetyScreen44 (BI); conditions: Compound concentration 10.0 uM
Sequence of Kappa-type opioid receptor (Homo sapiens) (P41145 whole entry): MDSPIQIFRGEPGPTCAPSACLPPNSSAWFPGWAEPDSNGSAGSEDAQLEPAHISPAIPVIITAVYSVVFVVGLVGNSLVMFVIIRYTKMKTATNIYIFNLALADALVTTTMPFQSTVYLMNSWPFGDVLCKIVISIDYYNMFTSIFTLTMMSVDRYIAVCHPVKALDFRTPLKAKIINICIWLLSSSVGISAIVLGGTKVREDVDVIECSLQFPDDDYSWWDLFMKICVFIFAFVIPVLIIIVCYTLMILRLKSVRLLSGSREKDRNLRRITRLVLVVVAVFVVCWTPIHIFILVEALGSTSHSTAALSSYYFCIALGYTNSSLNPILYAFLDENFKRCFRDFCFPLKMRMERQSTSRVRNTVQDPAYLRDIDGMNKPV

[21] = target: Mu-type opioid receptor (Homo sapiens) (UniProt P35372); assay: MU/H Eurofins SafetyScreen44 (BI); conditions: Compound concentration 10.0 uM
[22] = target: Beta-2 adrenergic receptor (Homo sapiens) (UniProt P07550); assay: BETA2/HUM Eurofins SafetyScreen44 (BI); conditions: filed as antagonist, Compound concentration 10.0 uM
[23] = target: T4, Alpha-1A adrenergic receptor (Homo sapiens); assay: ALPHA1AH_ANTAG Eurofins SafetyScreen44 (BI); conditions: filed as antagonist, Compound concentration 10.0 uM

T1 sequence (P20309 whole entry, looked up): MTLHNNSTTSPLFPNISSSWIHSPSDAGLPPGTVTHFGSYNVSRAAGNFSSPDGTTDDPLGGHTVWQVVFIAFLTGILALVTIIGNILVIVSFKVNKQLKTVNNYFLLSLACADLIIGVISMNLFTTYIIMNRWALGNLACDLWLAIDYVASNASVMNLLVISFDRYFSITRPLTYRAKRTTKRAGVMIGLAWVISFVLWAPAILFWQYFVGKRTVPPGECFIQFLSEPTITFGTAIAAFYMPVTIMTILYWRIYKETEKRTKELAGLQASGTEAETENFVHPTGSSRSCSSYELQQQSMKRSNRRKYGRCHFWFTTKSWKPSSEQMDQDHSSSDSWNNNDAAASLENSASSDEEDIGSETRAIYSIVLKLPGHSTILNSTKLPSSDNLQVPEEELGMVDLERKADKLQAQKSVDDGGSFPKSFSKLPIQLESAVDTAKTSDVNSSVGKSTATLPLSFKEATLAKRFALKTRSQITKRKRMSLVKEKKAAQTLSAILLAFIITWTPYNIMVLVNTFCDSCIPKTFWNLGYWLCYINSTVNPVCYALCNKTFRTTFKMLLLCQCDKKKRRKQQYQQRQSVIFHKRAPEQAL
Sequence of D(2) dopamine receptor (Homo sapiens) (P14416 whole entry): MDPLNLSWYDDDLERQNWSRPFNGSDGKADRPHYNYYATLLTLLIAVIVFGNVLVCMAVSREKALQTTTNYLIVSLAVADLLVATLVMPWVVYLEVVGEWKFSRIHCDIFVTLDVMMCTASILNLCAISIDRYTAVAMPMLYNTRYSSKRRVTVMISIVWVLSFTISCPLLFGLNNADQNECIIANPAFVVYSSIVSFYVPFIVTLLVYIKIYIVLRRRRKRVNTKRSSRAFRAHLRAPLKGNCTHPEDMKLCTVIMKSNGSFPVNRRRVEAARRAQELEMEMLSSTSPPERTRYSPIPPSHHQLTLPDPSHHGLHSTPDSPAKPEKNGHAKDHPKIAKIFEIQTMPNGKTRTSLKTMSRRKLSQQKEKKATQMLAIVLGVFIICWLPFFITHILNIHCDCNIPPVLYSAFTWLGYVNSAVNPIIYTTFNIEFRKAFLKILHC

Cc1cc(OCCC(C)(C)O)cc(C)c1-c1ccc(F)c2c1CC[C@H]2Oc1ccc2c(c1)OC[C@H]2CC(=O)O
residual activity [1]: 100% | residual activity ([2]; Compound concentration 0.3 uM): 83% | residual activity ([2]; Compound concentration 1.0 uM): 75% | residual activity ([2]; Compound concentration 3.0 uM): 60% | residual activity ([2]; Compound concentration 10.0 uM): 54% | residual activity ([2]; Compound concentration 30.0 uM): 28% | residual activity [3]: 31% | residual activity [4]: 100% | residual activity [5]: 67% | residual activity [6]: 92% | residual activity [7]: 111% | residual activity [8]: 95% | residual activity [9]: 114% | residual activity [10]: 113% | residual activity [11]: 96% | activity at 10 µM [12]: 80% (not active) | inhibition [13]: -8.92%

COCCCS(=O)(=O)c1cc(C)c(-c2ccc(F)c3c2CC[C@H]3Oc2ccc3c(c2)OC[C@H]3CC(=O)O)c(C)c1
residual activity [14]: 115% | residual activity [15]: 103% | residual activity [16]: 95% | residual activity [17]: 102% | residual activity [18]: 100% | residual activity [19]: 83% | residual activity [20]: 96% | residual activity [21]: 75% | residual activity [22]: 99% | residual activity [23]: 95%
